Consider 2 compounds from patent publication US11878049B1, “Mitapivat therapy and modulators of cytochrome P450” (Agios Pharmaceuticals, Inc., priority 2019, dated 2024).

Data set [1] can be described thus: Drug-drug interaction study Part 2: plasma PK after 50 mg mitapivat sulfate alone or with rifampin. Format: in vivo, human. To be noted: for Nominal time of peak arithmetic mean concentration: postdose; for Nominal time of peak arithmetic mean concentration / AUC(0-inf) / AUC(0-t) / Cmax: plasma; for Total exposure in the presence of rifampin compared to dosing of mitapivat sulfate alone: 50 mg mitapivat sulfate, 600 mg rifampin; for AUC(0-inf) / AUC(0-t) / Cmax: both sexes, human, healthy subjects; for AUC(0-inf): read-out: AUC0-inf, Geometric LSM; for AUC(0-t): read-out: AUC0-t, Geometric LSM; for Cmax: read-out: Cmax, Geometric LSM. The protocol: (§1) Twenty-eight (28) healthy, adult male and female (non-childbearing potential) subjects were enrolled in the study in total; 14 subjects in each study part (Parts 1 and 2). A minimum of 8 female subjects were enrolled in the study (i.e., a minimum of 4 female subjects per study part). Each subject participated in either Part 1 or Part 2, but not both.
On Day 1 of Treatment Period 1, a single oral dose of 50 mg mitapivat sulfate was administered. Serial blood samples for plasma assay of mitapivat and the Metabolite concentrations were collected from predose to 120 hours following administration of mitapivat sulfate. In Treatment Period 2, an oral dose of 600 mg rifampin was administered QD for 12 consecutive days (Day 1 through Day 12 of Treatment Period 2) with a single oral dose of 50 mg mitapivat sulfate coadministered on Day 8. Serial blood samples for plasma assay of mitapivat sulfate and the Metabolite concentrations were collected from predose to 120 hours following coadministration of mitapivat and rifampin on Day 8.
In Part 2, study drugs were administered with approximately 240 mL of water on all dosing days including the coadministration of mitapivat sulfate and rifampin on Day 8 of Treatment Period 2. Mitapivat sulfate and rifampin was administered following an overnight fast of at least 10 hours on Day 1 of Treatment Period 1 (mitapivat sulfate only) and Day 8 of Treatment Period 2 (both mitapivat sulfate and rifampin) and subjects remained fasted for 4 hours after dosing. On all other dosing days, rifampin was administered following a predose fast of at least 4 hours and subjects remained fasted for at least 2 hours after dosing. There was a washout period of 7 days between the mitapivat sulfate dose in Treatment Period 1 and the first itraconazole (Part 1) or rifampin (Part 2) dose in Treatment Period 2. All study drugs were consumed within 5 minutes for both Part 1 and Part 2.
Mitapivat sulfate (50 mg tablets) administered along with Rifampin (also referred to as Rifadin®, 300 mg capsules) is considered as the test arm in this study. Mitapivat sulfate (50 mg tablets) administered alone is considered as the reference arm in this study.
In Period 1, a single oral dose of 50 mg mitapivat sulfate was administered orally. In Period 2, subjects were administered 600 mg rifampin (2×300 mg capsules) QD on Day 1 to Day 12 inclusive, with 50 mg mitapivat sulfate (1×50 mg tablet) coadministered on Day 8. Study drugs were administered with approximately 240 mL of water on all dosing days including the coadministration of mitapivat sulfate and rifampin on Day 8 of Period 2.
(§2) In Parts 1 and 2, for mitapivat and the Metabolite, blood samples were obtained for all subjects to determine the plasma concentrations of mitapivat, and the Metabolite, before mitapivat sulfate dosing (0 hour) on Day 1 of Period 1 (Parts 1 and 2) and Day 5 (Part 1) or Day 8 (Part 2) of Period 2 at 0.5, 1, 1.5, 2, 3, 4, 5, 6, 8, 12, 16, 24, 48, 72, 96, and 120 hours postdose. Plasma concentrations of mitapivat and the Metabolite were determined using methods validated with respect to accuracy, precision, linearity, sensitivity, and specificity, with a lower limit of quantitation (LLOQ) of 0.5 ng/mL for both analytes. A noncompartmental PK approach was used to analyze individual plasma mitapivat and the Metabolite concentration time data (using Phoenix® WinNonlin® Version 7.0). The following PK parameters were calculated: AUC0-t, AUC0-inf, AUC0-24, AUC%extrap, Cmax, CL/F (mitapivat only), Tlast, Tmax, t½, and Vz/F (mitapivat only).
(§3) PK parameters were presented with a minimum of 3 significant figures. […]

Data set [2] can be described thus: Drug-drug interaction study Part 1: plasma PK after 20 mg mitapivat sulfate alone or with itraconazole. Format: in vivo, human. The note with it: for Total exposure in the presence of itraconazole compared to dosing of mitapivat sulfate alone: 20 mg mitapivat sulfate, 200 mg itraconazole; for AUC(0-inf) / AUC(0-t) / Cmax: both sexes, human, healthy subjects; for AUC(0-inf): read-out: AUC0-inf, Geometric LSM; for AUC(0-t): read-out: AUC0-t, Geometric LSM; for Cmax: read-out: Cmax, Geometric LSM. On the procedure: as §1
On Day 1 of Treatment Period 1, a single oral dose of 20 mg mitapivat sulfate was administered. Serial blood samples for plasma assay of mitapivat concentrations and its CYP3A4 metabolite, referred to herein as the “Metabolite” (structure below),
[drawing 3] were collected from predose to 120 hours following administration of mitapivat sulfate. In Treatment Period 2, an oral dose of 200 mg itraconazole was administered once daily (QD) for 9 consecutive days (Day 1 through Day 9 of Treatment Period 2) with a single oral dose of 20 mg mitapivat sulfate coadministered on Day 5. Serial blood samples for plasma assay of mitapivat and the Metabolite concentrations were collected from predose to 120 hours following coadministration of mitapivat sulfate and itraconazole on Day 5.
In Treatment Period 1, mitapivat sulfate was administered orally with approximately 240 mL of water. In Treatment Period 2, on Days 1 to 4, itraconazole was administered alone immediately followed by approximately 220 mL of water, and on Day 5, itraconazole was administered first (no water) and was immediately followed by mitapivat sulfate administration with approximately 220 mL of water. Study drugs (mitapivat sulfate and itraconazole) were administered following an overnight fast of at least 10 hours on Day 1 of Treatment Period 1 (mitapivat sulfate only) and Day 5 of Treatment Period 2 (mitapivat sulfate and itraconazole), and subjects remained fasted for 4 hours after dosing. On all other dosing days, itraconazole was administered following a predose fast of at least 4 hours and subjects remained fasted for at least 2 hours after dosing.
Mitapivat sulfate (20 mg tablets) administered along with Itraconazole (also referred to as Sporanox®, 10 mg/mL oral solution, is considered as the test arm in this study. Mitapivat sulfate administered alone is considered as the reference arm in this study. In Period 1, a single oral dose of 20 mg mitapivat sulfate was administered orally with approximately 240 mL of water. In Period 2, on Day 5 (coadministration of itraconazole and mitapivat sulfate), 200 mg itraconazole (20 mL of 10 mg/mL oral solution) was administered first (no water) and was immediately followed by 20 mg mitapivat sulfate (1×20 mg tablet) administration with approximately 220 mL of water. On all other dosing days, itraconazole was administered alone immediately followed by approximately 220 mL of water. Each subject received 2 doses of mitapivat sulfate and 9 doses of itraconazole in Part 1.
as §2, §3

Setting [3] is: 50 mg mitapivat sulfate coadministered with 600 mg rifampin (Period 2).
Setting [4] is: 50 mg mitapivat sulfate given alone (Period 1).
Where [5] appears, read: 50 mg mitapivat sulfate oral alone (Reference).
Where [6] appears, read: 50 mg mitapivat sulfate oral on Day 8 + 600 mg rifampin QD Days 1-12 (Test).
Setting [7] is: plasma, 20 mg mitapivat sulfate oral alone (Reference).
Setting [8] is: plasma, 20 mg mitapivat sulfate oral on Day 5 + 200 mg itraconazole QD Days 1-9 (Test).

The structures appear in SMILES notation.

As usually defined, the Cmax is the highest concentration seen after dosing. Take `O=C(c1ccc(NS(=O)(=O)c2cccc3cccnc23)cc1)N1CCNCC1` [Metabolite]: the figures for the “Nominal time of peak arithmetic mean concentration” value in data set [1] (setting [3]) and in data set [1] (setting [4]) were around 1 h and “approximately 2 hour”, respectively. In addition, the “Total exposure in the presence of rifampin compared to dosing of mitapivat sulfate alone” value in data set [1] is “decreased”. The AUC(0-inf) in data set [1] (setting [5]) was 663 ng·h/mL; in data set [1] (setting [6]) it was 245 ng·h/mL; in data set [2] (setting [7]), 216 ng·h/mL; in data set [2] (setting [8]) it was 339 ng·h/mL. Also, the AUC(0-t) in data set [1] (setting [5]) turned out to be 623 ng·h/mL; in data set [1] (setting [6]) it was 230 ng·h/mL; in data set [2] (setting [7]), 197 ng·h/mL; in data set [2] (setting [8]) it was 300 ng·h/mL. For the same compound, the Cmax amounted to 53.8 ng/mL in data set [1] (setting [5]), 64.5 ng/mL in data set [1] (setting [6]), 18.8 ng/mL in data set [2] (setting [7]) and 9.11 ng/mL in data set [2] (setting [8]). Further, the “Total exposure in the presence of itraconazole compared to dosing of mitapivat sulfate alone” value in data set [2] was “increased”.

Take `O=C(c1ccc(NS(=O)(=O)c2cccc3cccnc23)cc1)N1CCN(CC2CC2)CC1` [Mitapivat, N-(4-(4-(cyclopropylmethyl)piperazine-1-carbonyl)phenyl)quinoline-8-sulfonamide]: the results for the “Nominal time of peak arithmetic mean concentration” value in data set [1] (setting [3]) and in data set [1] (setting [4]) were around 0.5 h and “approximately 1 hour”, respectively. Moreover, in data set [1], the “Total exposure in the presence of rifampin compared to dosing of mitapivat sulfate alone” value is on record as “decreased”. The AUC(0-inf) in data set [1] (setting [5]) turned out to be 5680 ng·h/mL; in data set [1] (setting [6]) it was 496 ng·h/mL; in data set [2] (setting [7]) it was 1940 ng·h/mL; in data set [2] (setting [8]), 9480 ng·h/mL. Also, the AUC(0-t) stood at 5560 ng·h/mL in data set [1] (setting [5]), 486 ng·h/mL in data set [1] (setting [6]), 1880 ng·h/mL in data set [2] (setting [7]) and 8860 ng·h/mL in data set [2] (setting [8]). The Cmax in data set [1] (setting [5]) worked out at 1260 ng/mL; in data set [1] (setting [6]) it was 292 ng/mL; in data set [2] (setting [7]) it was 412 ng/mL; in data set [2] (setting [8]), 704 ng/mL. In addition, the “Total exposure in the presence of itraconazole compared to dosing of mitapivat sulfate alone” value in data set [2] is “increased”. The “Delay in time to peak concentration” value in data set [2] (coadministered with itraconazole compared to administered alone, plasma) is listed as “approximately 2 hours”.
